From patent publication US4554274A, “Nb Quaternary derivatives of ajmaline and isoajmaline, methods and intermediate products in the manufacture of their derivatives and method of using same and pharmaceutical compositions thereof” (priority 1979, dated 1985)
Where a name gives a salt, the structure may show the parent alone. Read-outs that look alike come from different tables or passages of the source.

Tests used:
[1] = acute toxicity (LD50) in mice; assay type: in vivo; details: mouse, in vivo, male NMRI-mice, mortality on 7th day
Description: (§1) The acute toxicity of the compounds is determined in male NMRI-mice (body weight range 18-22 g) after oral (p.o.) and intraperitonal (i.p.) administration. The LD50 is defined as that dose in μmol/kg which causes a 50% mortality rate of the test animals on the 7th day after application. The calculation of the LD50 is carried out by probitanalysis (see L. Cavalli-Sforza, Grundbegriffe der Biometric, Gustav Fischer Verlag Stuttgart (1964)).

[2] = test system: male Wista rats (aconitine); experiment: aconitine infusion in rats, heart rhythm disruption (Raschak); assay type: in vivo; details: 1/20th of the LD50, concurrent aconitine infusion, time difference vs control
Description: To determine the influence of the active ingredient on male Wista rats (weighing 280 to 350 g), infusion with aconitine according to the method of Raschak is carried out (M. Raschak, Arzneim. Forschung (Drug Research) 25 (4) (1975) pp. 639-641). The results are given as the difference (that is, the difference in time as Δ%) between the active substance and a control sample in bringing about a disruption of heart rhythms (extrasystolic (ES), ventricular tachicardiea (VT), chamber flutter (KF)). In the control sample the active ingredient is replaced by a vehicle such as isotonic NaCl-solution or solution medium. The administration of the active ingredient is in a dosage of 1/20th of the LD50 and a constant concurrent infusion per unit of time of aconitine.

[3] = test system: isolated left atria; experiment: functional refractory period (FRP) and contraction force (CF) in isolated left atria, double stimulus method of Govier; design: species or system female guinea pigs; details: for ratio between contraction force-reducing dose and functional refractory period-prolonging dose: CF/FRP, indication of therapeutic range, 18 min; for EC (FRP prolonged to 125%) / IC25: Cavia porcellus, 0.3 h, isolated left atria of guinea pig, 18 minutes after application; for EC (FRP prolonged to 125%): read-out: concentration prolonging functional refractory period (FRP) to 125% of starting value; for IC25: read-out: concentration reducing contraction force (CF) to 75% of starting value
Description: The prolongation of the functional refractory period (FRP) and the contraction force (CF) in the isolated left atria of female guinea pigs (albinopirbright-white guinea pigs, body weight range 300-400 g) are determined according to the double stimulus method of Govier (see W. C. Govier, J. Pharmakol, Exp. Ther. 148 (1965) pp. 100-105). The concentrations which are given in the table below are the concentrations in […] which 18 minutes after application leads to a prolongation of the functional refractory period to 125% or respectively to a reduction of the contraction force to 75% of the starting value. Furthermore the ratio between contraction force-reducing dose and functional refractory period-prolonging dose is given. This ratio is an indication of the therapeutic range of the antiarrhythmic effect on the isolated organ (see K. Greef, Verh. Dtsch. Ges. Kreislaufforsch. 35 (1969) pp. 88-97).

[4] = test system: male NMRI-mice; experiment: minimum symptom dose (Campbell and Richter); assay type: in vivo; design: key: (*): symptoms already indicating toxic area; details: i.p., changes in behavior in 2 out of 3 mice
Description: The minimum symptom dose is determined in male NMRI-mice (body weight range 18-22 g) according to the procedure of Campbell and Richter (see D. E. S. Campbell and W. Richter, Acta Pharmacol. Toxicol. 25 (1967), pp. 345-363). The minimum symptom dose is defined as that dose in μmol/kg which after i.p. administration causes changes in behavior in 2 out of 3 mice. The minimum symptom dose is a measure for evaluations undesirable side effects.

[5] = test system: male NMRI-mice; experiment: acute toxicity (LD50) in mice; assay type: in vivo; details: i.p., mortality on 7th day
Description: as §1

Structure (SMILES) | LD50 at 168 h ([1]; ip, i.p., read-out: LD50 i.p.) | LD50 at 168 h ([1]; po, p.o., read-out: LD50 p.o.) | Aconitin-Rat, ES (extrasystolic), Δ % [2] | Aconitin-Rat, KF (chamber flutter), Δ % [2] | Aconitin-Rat, VT (ventricular tachycardia), Δ % [2] | ratio between contraction force-reducing dose and functional refractory period-prolonging dose [3] | EC (FRP prolonged to 125%) [3] | IC25 [3] | Min. Symptom-dose [4] | LD50 i.p. [5]
CCC1C2CC3C4N(C)c5ccc(Br)cc5C45CC(C2C5O)[N+]3(CCN2CCCC2)C1O (stereo not drawn) [Example 8.b, Nb-(2-(1-pyrrolidinyl)ethyl)-10-bromoisoajmalinium bishydrogen tartrate] | 115 µmol/kg | 394 µmol/kg | +212% | +129% | > +149% | 2.3 | 0.9 µM | 2 µM | 31 µmol/kg | –
CCC1C2CC3C4N(C)c5ccc(Br)cc5C45CC(C2C5O)[N+]3(CCN2CCCCC2)C1O (stereo not drawn) [Example 9.b, Nb-(2-(1-piperidinyl)ethyl)-10-bromoisoajmalinium bishydrogen tartrate] | 60 µmol/kg | 148 µmol/kg | +151% | +95% | +52% | 0.7 | 2.3 µM | 1.4 µM | 31 µmol/kg | –
CCC1C2CC3C4N(C)c5ccc(Br)cc5C45CC(C2C5O)[N+]3(CCN2CCOCC2)C1O (stereo not drawn) [Example 10, Nb-[2-(4-morpholinyl)ethyl]-10-bromoisoajmalinium-chloride] | 45 µmol/kg | 470 µmol/kg | +67% | +43% | +69% | 12.9 | 0.2 µM | 2.1 µM | 22 µmol/kg | –
CCC1C2CC3C4N(C)c5ccc(Br)cc5C45CC(C2C5O)[N+]3(C)C1O (stereo not drawn) [Example 11.b, Nb-methyl-10-bromoisoajmalinium hydrogen tartrate] | 190 µmol/kg | 1290 µmol/kg | +85% | +52% | +73% | 1.3 | 7.2 µM | 9 µM | 88 µmol/kg | –
CCC1C2CC3C4N(C)c5ccc(Br)cc5C45CC(C2C5O)[N+]3(CC)C1O (stereo not drawn) [Example 12.b, Nb-ethyl-10-bromo-isoajmalinium hydrogen tartrate] | 122 µmol/kg | 1430 µmol/kg | +52% | +39% | +55% | 0.9 | 1.5 µM | 1.4 µM | 21 µmol/kg | –
CCC[N+]12C(O)C(CC)C3CC1C1N(C)c4ccc(Br)cc4C14CC2C3C4O (stereo not drawn) [Example 13.b, Nb-propyl-10-bromoisoajmalinium hydrogen tartrate] | – | 437 µmol/kg | +110% | +110% | +130% | 2.4 | 0.6 µM | 1.5 µM | 42 µmol/kg | –
CCCC[N+]12C(O)C(CC)C3CC1C1N(C)c4ccc(Br)cc4C14CC2C3C4O (stereo not drawn) [Example 14.b, Nb-butyl-10-bromoisoajmalinium hydrogen tartrate] | 76 µmol/kg | 198 µmol/kg | +80% | +88% | +87% | 0.7 | 2 µM | 1.5 µM | 20 µmol/kg | –
CCCCCCCCCC[N+]12C(O)C(CC)C3CC1C1N(C)c4ccc(Br)cc4C14CC2C3C4O (stereo not drawn) [Example 15.b, Nb-decyl-10-bromoisoajmalinium hydrogen tartrate] | 72 µmol/kg | > 1440 µmol/kg | n.s. | n.s. | n.s. | 4.6 | 24.8 µM | 113 µM | 287 µmol/kg | –
CCC1C2CC3C4N(C)c5ccc(Br)cc5C45CC(C2C5O)[N+]3(Cc2ccccc2)C1O (stereo not drawn) [Example 16.b, Nb-benzyl-10-bromoisoajmalinium hydrogen tartrate] | 483 µmol/kg | 2280 µmol/kg | +36% | +31% | +30% | 6.1 | 2.7 µM | 16.6 µM | (*) | –
CCC1C2CC3C4N(C)c5ccc(Br)cc5C45CC(C2C5O)[N+]3(CCCN(CC)CC)C1O (stereo not drawn) [Example 19.b, Nb-diethylaminopropyl-10-bromoisoajmalinium bishydrogen tartrate] | 122 µmol/kg | 686 µmol/kg | +220% | +158% | +180% | 0.5 | 4.4 µM | 2 µM | 31 µmol/kg | –
CCC1C2CC3C4N(C)c5ccc(Br)cc5C45CC(C2C5O)[N+]3(CC(O)c2ccccc2)C1O (stereo not drawn) [Example 21, Nb-(2-hydroxy-2-phenylethyl)-10-bromoisoajmalinium hydrogen tartrate] | 250 µmol/kg | 2180 µmol/kg | +89% | +72% | +92% | 0.8 | 3.8 µM | 3.2 µM | – | –
CCC1C2CC3C4N(C)c5ccc(Br)cc5C45CC(C2C5O)[N+]3(CC(O)CN2CCCCC2)C1O (stereo not drawn) [Example 22, Nb-(2-hydroxy-3-(1-piperidinyl)propyl)-10-bromoisoajmalinium hydrogen tartrate] | – | 550 µmol/kg | +154% | +110% | +121% | – | 8.1 µM | 3.4 µM | 72 µmol/kg | 168 µmol/kg
CCC[N+]12C(O)C(CC)C3CC1C1N(C)c4ccccc4C14CC2C3C4O (stereo not drawn) [Neo-Gilurytmal, Nb -propyl ajmalinium hydrogen tartrate, reference compound] | – | – | +86% | +50% | +80% | – | 1.8 µM | 0.26 µM | 12 µmol/kg | –
